Measured values as given in patent US9555038B2, “Heterocycle-substituted tetracyclic compounds and methods of use thereof for the treatment of viral diseases” (Merck Sharp & Dohme Corp., priority 2013, dated 2017).
Read-outs that look alike come from different tables or passages of the source.

What was measured:
HCV replicon 1A = test: Cell-based HCV Replicon Assay A, replicon 1A
Outline: (§1)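 HCV replicon RNA levels are measured by multiplexed real-time RT-PCR, with cyclophilin as internal control, after 3 days of compound exposure. Compounds are tested in 10 serial dilutions starting between 333.3 nM and 1.667 nM, with 5% FBS in the medium.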

HCV replicon 1AY93H = test: Cell-based HCV Replicon Assay A, replicon 1AY93H
Outline: as §1

HCV replicon 2B = test: Cell-based HCV Replicon Assay A, replicon 2B
Outline: as §1

HCV replicon 1AQ30D = test: Cell-based HCV Replicon Assay B, replicon 1AQ30D
Outline: (§2)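 Replicon cells seeded in 5% FBS; compounds added 24 h later, then 3 days' incubation. Replicon RNA quantified by real-time RT-PCR with genotype-specific primers/probes (NS5B amplicon for 1b). EC50 = concentration raising CT by 1 over projected baseline.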

HCV replicon 1B = test: Cell-based HCV Replicon Assay B, replicon 1B
Outline: as §2

[1] = Hepatitis C virus, read-out: 1A Y93H IC50 (nM), replicon 1AY93H
[2] = Hepatitis C virus, read-out: 2B IC50 (nM), replicon 2B
[3] = Hepatitis C virus, read-out: 1A Q30D IC50 (nM), replicon 1AQ30D
[4] = read-out: 1A Y93H IC50, replicon 1AY93H
[5] = read-out: 1A Q30D IC50, replicon 1AQ30D

Compound	IC50 (HCV replicon 1A; Hepatitis C virus)	IC50 (HCV replicon 1AY93H; [1])	IC50 (HCV replicon 2B; [2])	IC50 (HCV replicon 1AQ30D; [3])	IC50 (HCV replicon 1B; Hepatitis C virus)	IC50 (HCV replicon 1AY93H; [4])	IC50 (HCV replicon 2B; read-out: 2B IC50, replicon 2B)	IC50 (HCV replicon 1AQ30D; [5])	IC50 (HCV replicon 1A)	IC50 (HCV replicon 1B)
COC(=O)NC(C(=O)N1[C@@H]2C[C@@H]2C[C@H]1c1ncc(-c2ccc3c(c2)cc2n3C(c3cnc(C4CCC4)s3)Oc3cc(-c4cnc([C@@H]5CCCN5C(=O)[C@@H](NC(=O)OC)C(C)C)[nH]4)cc(C)c3-2)[nH]1)C1CCOC(C)(C)C1 (single isomer, unassigned) [Compound 223]	6 pM	0.3 nM	0.115 nM	2.98 nM	8 pM	–	–	–	–	–
COC(=O)NC(C(=O)N1[C@@H]2C[C@@H]2C[C@H]1c1ncc(-c2ccc3c(c2)cc2n3C(c3cnc(C4(C)CC4)s3)Oc3cc(-c4cnc([C@@H]5CCCN5C(=O)[C@@H](NC(=O)OC)C(C)C)[nH]4)cc(F)c3-2)[nH]1)C1CCOC(C)(C)C1 (single isomer, unassigned) [Compound 465]	2.7 pM	–	–	–	3.9 pM	0.002 nM	0.005 nM	0.022 nM	–	–
COC(=O)N[C@H](C(=O)N1CCC[C@H]1c1ncc(-c2cc(F)c3c(c2)OC(c2cnc(C(F)F)s2)n2c-3cc3cc(-c4cnc([C@@H]5CCCN5C(=O)[C@@H](NC(=O)OC)C(C)C)[nH]4)ccc32)[nH]1)C(C)C (single isomer, unassigned) [Compound 20]	1.5 pM	–	–	0.01 nM	1 pM	0.0083 nM	0.008 nM	–	–	–
COC(=O)NC(C(=O)N1[C@@H]2C[C@@H]2C[C@H]1c1ncc(-c2ccc3c(c2)cc2n3C(c3cnc(C4CC4)s3)Oc3cc(-c4cnc([C@@H]5CCCN5C(=O)[C@@H](NC(=O)OC)C(C)C)[nH]4)cc(F)c3-2)[nH]1)C(C)(C)F (single isomer, unassigned) [Compound 27]	1.6 pM	–	–	–	2 pM	0.0037 nM	0.009 nM	0.02 nM	–	–
COC(=O)NC(C(=O)N1[C@@H]2C[C@@H]2C[C@H]1c1ncc(-c2ccc3c(c2)cc2n3C(c3cnc(C4(C)CC4)s3)Oc3cc(-c4cnc([C@@H]5CCCN5C(=O)[C@@H](NC(=O)OC)C(C)C)[nH]4)cc(F)c3-2)[nH]1)C1CCOC(C)(C)C1 (single isomer, unassigned) [Compound 468]	–	–	–	–	–	0.155 nM	0.234 nM	1.23 nM	3.3 pM	2.9 pM
COC(=O)N[C@H](C(=O)N1CCC[C@H]1c1ncc(-c2cc(F)c3c(c2)OC(c2cnc(-c4ccccn4)s2)n2c-3cc3cc(-c4cnc([C@@H]5CCCN5C(=O)[C@@H](NC(=O)OC)C(C)C)[nH]4)ccc32)[nH]1)C(C)C (mixture of isomers) [Compound 407]	2.7 pM	0.143 nM	0.192 nM	0.482 nM	4 pM	–	–	–	–	–
CCC(CC)c1ncc(C2Oc3cc(-c4cnc([C@@H]5CCCN5C(=O)[C@@H](NC(=O)OC)C(C)C)[nH]4)cc(F)c3-c3cc4cc(-c5cnc([C@@H]6CCCN6C(=O)C(NC(=O)OC)C6CCOC(C)(C)C6)[nH]5)ccc4n32)s1 (single isomer, unassigned) [Compound 444]	2.2 pM	–	–	–	3.8 pM	0.005 nM	0.007 nM	0.038 nM	–	–
COC(=O)N[C@H](C(=O)N1CCC[C@H]1c1ncc(-c2cc(F)c3c(c2)OC(c2cnc(C4CC4C)s2)n2c-3cc3cc(-c4cnc([C@@H]5CCCN5C(=O)[C@@H](NC(=O)OC)C(C)C)[nH]4)ccc32)[nH]1)C(C)C (mixture of isomers) [Compound 491]	2.9 pM	0.01 nM	0.013 nM	0.3 nM	2.6 pM	–	–	–	–	–
COC(=O)N[C@H](C(=O)N1CCC[C@H]1c1ncc(-c2cc(C)c3c(c2)OC(c2ncc(C4CC4)s2)n2c-3cc3cc(-c4cnc([C@@H]5CCCN5C(=O)[C@@H](NC(=O)OC)C5C[C@@H](C)O[C@@H](C)C5)[nH]4)ccc32)[nH]1)C(C)C (single isomer, unassigned) [Compound 48]	–	–	–	–	–	0.0538 nM	0.016 nM	0.31 nM	1.5 pM	2 pM
COC(=O)N[C@H](C(=O)N1CCC[C@H]1c1ncc(-c2cc(F)c3c(c2)OC(c2cnc(C4CCOCC4)s2)n2c-3cc3cc(-c4cnc([C@@H]5CCCN5C(=O)[C@@H](NC(=O)OC)C(C)C)[nH]4)ccc32)[nH]1)C(C)C (single isomer, unassigned) [Compound 531]	2.5 pM	–	–	0.328 nM	3.8 pM	0.022 nM	0.056 nM	–	–	–
COC(=O)NC(C(=O)N1[C@@H]2C[C@@H]2C[C@H]1c1ncc(-c2ccc3c(c2)cc2n3C(c3cnc(C4CC4)s3)Oc3cc(-c4cnc([C@@H]5CC6CC6N5C(=O)[C@@H](NC(=O)OC)C(C)C)[nH]4)cc(F)c3-2)[nH]1)C1CCOC(C)(C)C1 (single isomer, unassigned) [Compound 110]	3.3 pM	0.003 nM	0.007 nM	0.027 nM	4 pM	–	–	–	–	–
COC(=O)N[C@H](C(=O)N1CCC[C@H]1c1ncc(-c2cc(F)c3c(c2)OC(c2nc4c(s2)CCCC4)n2c-3cc3cc(-c4cnc([C@@H]5CCCN5C(=O)[C@@H](NC(=O)OC)C(C)C)[nH]4)ccc32)[nH]1)C(C)C (single isomer, unassigned) [Compound 87]	2.5 pM	0.0714 nM	0.003 nM	–	864 pM	–	–	0.068 nM	–	–
COC(=O)N[C@H](C(=O)N1CCC[C@H]1c1ncc(-c2cc(F)c3c(c2)OC(c2cnc(-c4ccc(OC(F)(F)F)cc4)s2)n2c-3cc3cc(-c4cnc([C@@H]5CCCN5C(=O)[C@@H](NC(=O)OC)C(C)C)[nH]4)ccc32)[nH]1)C(C)C (single isomer, unassigned) [Compound 77]	–	–	–	–	1 pM	0.0056 nM	0.005 nM	0.053 nM	3.5 pM	–
CCCc1ncc(C2Oc3cc(-c4cnc([C@@H]5CCCN5C(=O)[C@@H](NC(=O)OC)C(C)C)[nH]4)cc(F)c3-c3cc4cc(-c5cnc([C@@H]6C[C@H]7C[C@H]7N6C(=O)C(NC(=O)OC)C6C[C@@H](C)O[C@@H](C)C6)[nH]5)ccc4n32)s1 (single isomer, unassigned) [Compound 109]	–	–	–	–	–	0.0303 nM	0.069 nM	0.176 nM	3.4 pM	4 pM
COC(=O)NC(C(=O)N1CCC[C@H]1c1ncc(-c2ccc3c(c2)cc2n3C(c3cnc(C4(C)CCCC4)s3)Oc3cc(-c4cnc([C@@H]5CCCN5C(=O)[C@@H](NC(=O)OC)C(C)C)[nH]4)cc(F)c3-2)[nH]1)C1CCOC(C)(C)C1 (single isomer, unassigned) [Compound 446]	1.8 pM	–	–	–	3.4 pM	0.004 nM	0.005 nM	0.034 nM	–	–
COC(=O)N[C@H](C(=O)N1CCC[C@H]1c1ncc(-c2cc(F)c3c(c2)OC(c2cnc(C4(C)CC4)s2)n2c-3cc3cc(-c4cnc([C@@H]5C[C@H]6C[C@H]6N5C(=O)[C@@H](NC(=O)OC)C(C)C)[nH]4)ccc32)[nH]1)C(C)C (single isomer, unassigned) [Compound 453]	–	–	–	–	–	0.21 nM	0.65 nM	2.14 nM	2.3 pM	2 pM
COC(=O)NC(C(=O)N1[C@@H]2C[C@@H]2C[C@H]1c1ncc(-c2ccc3c(c2)cc2n3C(c3cnc(C4(C)CC4)s3)Oc3cc(-c4cnc([C@@H]5CCCN5C(=O)[C@@H](NC(=O)OC)C(C)C)[nH]4)cc(F)c3-2)[nH]1)C1CCOC(C)(C)C1 (single isomer, unassigned) [Compound 466]	–	–	–	–	–	0.002 nM	0.005 nM	0.015 nM	2.7 pM	3 pM
COC(=O)NC(C(=O)N1[C@@H]2C[C@@H]2C[C@H]1c1ncc(-c2ccc3c(c2)c(F)c2n3C(c3cnc(C4CC4)s3)Oc3cc(-c4cnc([C@@H]5CCCN5C(=O)[C@@H](NC(=O)OC)C(C)C)[nH]4)cc(F)c3-2)[nH]1)C1CCOC(C)(C)C1 (single isomer, unassigned) [Compound 112]	1.9 pM	–	–	0.036 nM	3 pM	0.0044 nM	0.004 nM	–	–	–
CCc1ncc(C2Oc3cc(-c4cnc([C@@H]5CCCN5C(=O)[C@@H](NC(=O)OC)C(C)C)[nH]4)cc(F)c3-c3cc4cc(-c5cnc([C@@H]6C[C@H]7C[C@H]7N6C(=O)[C@@H](NC(=O)OC)C6C[C@@H](C)O[C@@H](C)C6)[nH]5)ccc4n32)s1 (single isomer, unassigned) [Compound 96]	2.4 pM	–	–	–	3 pM	0.0037 nM	0.006 nM	0.02 nM	–	–
